# Data taken from patent US11214565B2, “Compound, compositions, and methods” (Denali Therapeutics Inc., priority 2015, dated 2022).
# Biological target: LRRK2 G2019S enzyme (Homo sapiens (Human), UniProt Q5S007, G2019S)
# Assay: LRRK2 G2019S TR-FRET biochemical kinase assay (LRRKtide substrate)
# Conditions: Table A-2; 5 nM LRRK2, 134 μM ATP, 60 minute reaction, 23° C.
# How it was run: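 TR-FRET phospho-LRRKtide readout (2 nM antibody, 10 mM EDTA, 60 min) after a 60 min, 23 °C kinase reaction. The reaction used 134 μM ATP and 5 nM enzyme in pH 7.5 Tris/MgCl2/EGTA/DTT buffer, with compound and enzyme-substrate mix preincubated for 20 min beforehand.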
# Sequence of LRRK2 G2019S enzyme (Q5S007 whole entry G2019S): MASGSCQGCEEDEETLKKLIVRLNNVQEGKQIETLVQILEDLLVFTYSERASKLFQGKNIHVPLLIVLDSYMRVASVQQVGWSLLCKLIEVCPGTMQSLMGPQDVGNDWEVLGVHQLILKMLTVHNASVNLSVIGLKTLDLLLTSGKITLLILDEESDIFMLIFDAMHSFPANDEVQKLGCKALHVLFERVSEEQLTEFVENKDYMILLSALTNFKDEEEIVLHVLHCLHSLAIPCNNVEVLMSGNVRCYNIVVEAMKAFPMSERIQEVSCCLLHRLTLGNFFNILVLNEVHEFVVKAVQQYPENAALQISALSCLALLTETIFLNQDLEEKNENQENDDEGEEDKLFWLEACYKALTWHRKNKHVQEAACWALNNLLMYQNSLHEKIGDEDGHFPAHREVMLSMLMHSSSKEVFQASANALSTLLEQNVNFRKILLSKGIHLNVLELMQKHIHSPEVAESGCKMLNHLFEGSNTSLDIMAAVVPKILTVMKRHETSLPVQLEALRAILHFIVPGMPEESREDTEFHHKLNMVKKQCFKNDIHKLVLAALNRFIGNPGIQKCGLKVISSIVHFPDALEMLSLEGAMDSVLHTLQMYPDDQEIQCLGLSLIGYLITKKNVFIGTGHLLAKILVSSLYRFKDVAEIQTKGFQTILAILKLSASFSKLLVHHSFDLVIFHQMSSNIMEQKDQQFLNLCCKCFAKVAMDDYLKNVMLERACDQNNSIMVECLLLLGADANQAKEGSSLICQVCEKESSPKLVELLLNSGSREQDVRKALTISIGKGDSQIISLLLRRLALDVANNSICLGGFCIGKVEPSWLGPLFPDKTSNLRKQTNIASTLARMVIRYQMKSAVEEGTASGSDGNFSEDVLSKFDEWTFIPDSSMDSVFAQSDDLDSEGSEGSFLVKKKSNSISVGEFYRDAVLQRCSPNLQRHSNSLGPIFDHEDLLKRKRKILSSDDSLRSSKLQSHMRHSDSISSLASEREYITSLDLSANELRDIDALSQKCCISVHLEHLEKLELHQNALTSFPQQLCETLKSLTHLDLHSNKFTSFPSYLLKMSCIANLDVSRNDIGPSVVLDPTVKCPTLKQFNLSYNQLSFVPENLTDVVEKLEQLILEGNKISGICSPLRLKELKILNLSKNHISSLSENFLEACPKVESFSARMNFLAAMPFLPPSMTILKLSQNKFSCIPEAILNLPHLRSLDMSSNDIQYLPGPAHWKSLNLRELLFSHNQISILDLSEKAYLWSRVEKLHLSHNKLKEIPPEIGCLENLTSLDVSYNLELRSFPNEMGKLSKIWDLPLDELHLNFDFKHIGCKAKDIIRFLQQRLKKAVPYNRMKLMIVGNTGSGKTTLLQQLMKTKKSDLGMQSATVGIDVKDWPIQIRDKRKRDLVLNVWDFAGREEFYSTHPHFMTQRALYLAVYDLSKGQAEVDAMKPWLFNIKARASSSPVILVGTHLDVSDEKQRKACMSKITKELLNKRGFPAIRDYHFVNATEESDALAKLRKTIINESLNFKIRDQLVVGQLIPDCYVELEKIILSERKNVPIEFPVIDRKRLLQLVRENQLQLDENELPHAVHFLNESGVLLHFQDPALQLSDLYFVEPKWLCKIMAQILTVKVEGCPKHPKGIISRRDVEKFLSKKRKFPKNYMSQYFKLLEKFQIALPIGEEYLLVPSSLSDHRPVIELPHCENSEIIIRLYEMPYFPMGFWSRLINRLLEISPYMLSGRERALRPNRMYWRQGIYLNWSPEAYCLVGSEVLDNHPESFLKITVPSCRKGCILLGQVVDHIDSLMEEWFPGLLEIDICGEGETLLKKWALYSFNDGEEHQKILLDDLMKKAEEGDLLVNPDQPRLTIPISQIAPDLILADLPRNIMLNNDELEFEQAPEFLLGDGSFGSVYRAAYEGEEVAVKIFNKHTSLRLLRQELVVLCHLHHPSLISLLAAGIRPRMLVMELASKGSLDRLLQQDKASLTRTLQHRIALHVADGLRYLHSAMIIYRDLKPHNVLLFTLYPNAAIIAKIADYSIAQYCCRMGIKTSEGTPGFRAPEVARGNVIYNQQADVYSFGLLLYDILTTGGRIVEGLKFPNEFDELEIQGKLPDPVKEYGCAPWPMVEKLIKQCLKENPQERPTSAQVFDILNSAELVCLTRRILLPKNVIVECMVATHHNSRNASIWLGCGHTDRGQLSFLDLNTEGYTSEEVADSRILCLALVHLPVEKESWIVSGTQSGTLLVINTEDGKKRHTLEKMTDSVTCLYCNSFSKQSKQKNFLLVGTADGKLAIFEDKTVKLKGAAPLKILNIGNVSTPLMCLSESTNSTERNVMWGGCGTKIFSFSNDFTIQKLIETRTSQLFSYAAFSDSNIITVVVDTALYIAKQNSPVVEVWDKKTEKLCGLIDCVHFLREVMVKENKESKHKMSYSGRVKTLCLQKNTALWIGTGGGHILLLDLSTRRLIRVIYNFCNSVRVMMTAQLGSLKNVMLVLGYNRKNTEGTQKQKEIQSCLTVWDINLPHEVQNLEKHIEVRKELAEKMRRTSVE
row,Compound,IC50
1,"Cc1nn(Cc2ccn(C)n2)cc1Nc1ncc(C(F)(F)F)c(C2CC2)n1 [Compound A-55, 4-cyclopropyl-N-(3-methyl-1-((1-methyl-1H-pyrazol-3-yl)methyl)-1H-pyrazol-4-yl)-5-(trifluoromethyl)pyrimidin-2-amine]",< 30 nM
2,"Cc1nn(C(C)(C)c2cn(C)cn2)cc1Nc1ncc(C(F)(F)F)c(C2CC2)n1 [Compound A-56, 4-cyclopropyl-N-(3-methyl-1-(2-(1-methyl-1H-imidazol-4-yl)propan-2-yl)-1H-pyrazol-4-yl)-5-(trifluoromethyl)pyrimidin-2-amine]",< 30 nM
3,"CC(C)(O)Cn1ncc(Nc2ncc(C(F)(F)F)c(C3CC3)n2)c1Cl [Compound A-57, 1-[5-chloro-4-[[4-cyclopropyl-5-(trifluoromethyl)pyrimidin-2-yl]amino]pyrazol-1-yl]-2-methyl-propan-2-ol]",> 60 nM
4,"Cc1nn(C(C)(C)c2nc[nH]n2)cc1Nc1ncc(C(F)(F)F)c(C2CC2)n1 [Compound A-58, N-(1-(2-(1H-1,2,4-triazol-3-yl)propan-2-yl)-3-methyl-1H-pyrazol-4-yl)-4-cyclopropyl-5-(trifluoromethyl)pyrimidin-2-amine]",< 30 nM
5,"FC(F)(F)c1cnc(Nc2cnn(CC3(CN4CCOCC4)CC3)c2Cl)nc1C1CC1 [Compound A-63, N-[5-chloro-1-[[1-(morpholinomethyl)cyclopropyl]methyl]pyrazol-4-yl]-4-cyclopropyl-5-(trifluoromethyl)pyrimidin-2-amine]",30 to 60 nM
6,Cn1cnc(C(C)(C)n2cc(Nc3ncc(C(F)(F)F)c(C4CC4)n3)c(CO)n2)n1 [Compound A-66],> 60 nM
7,"Cc1nn(C(C)(C)c2ccn[nH]2)cc1Nc1ncc(C(F)(F)F)c(C2CC2)n1 [Compound A-67, 4-cyclopropyl-N-[3-methyl-1-[1-methyl-1-(1H-pyrazol-5-yl)ethyl]pyrazol-4-yl]-5-(trifluoromethyl)pyrimidin-2-amine]",< 30 nM
8,"Cc1c(Nc2ncc(C(F)(F)F)c(C3CC3)n2)cnn1[C@H]1CC2C(C1)[C@H]2c1ncnn1C (stereo partly drawn) [Compound A-68, 4-cyclopropyl-N-(5-methyl-1-((1R,3s,5S,6r)-6-(1-methyl-1H-1,2,4-triazol-5-yl)bicyclo[3.1.0]hexan-3-yl)-1H-pyrazol-4-yl)-5-(trifluoromethyl)pyrimidin-2-amine]",< 30 nM
9,"Cc1nn([C@H]2CC3C(C2)[C@H]3c2ncn(C)n2)cc1Nc1ncc(C(F)(F)F)c(C2CC2)n1 (stereo partly drawn) [Compound A-69, 4-cyclopropyl-N-(3-methyl-1-((1R,3r,5S,6r)-6-(1-methyl-1H-1,2,4-triazol-3-yl)bicyclo[3.1.0]hexan-3-yl)-1H-pyrazol-4-yl)-5-(trifluoromethyl)pyrimidin-2-amine]",< 30 nM
10,"Cc1nn([C@H]2CC3C(C2)[C@H]3c2ncnn2C)cc1Nc1ncc(C(F)(F)F)c(C2CC2)n1 (stereo partly drawn) [Compound A-70, 4-cyclopropyl-N-(3-methyl-1-((1R,3s,5S,6r)-6-(1-methyl-1H-1,2,4-triazol-5-yl)bicyclo[3.1.0]hexan-3-yl)-1H-pyrazol-4-yl)-5-(trifluoromethyl)pyrimidin-2-amine]",< 30 nM
11,"Cc1nn(C(C)(C)c2cn[nH]n2)cc1Nc1ncc(C(F)(F)F)c(C2CC2)n1 [Compound A-71, N-(1-(2-(2H-1,2,3-triazol-4-yl)propan-2-yl)-3-methyl-1H-pyrazol-4-yl)-4-cyclopropyl-5-(trifluoromethyl)pyrimidin-2-amine]",< 30 nM
12,"Cc1nnc(C(C)(C)n2cc(Nc3ncc(C(F)(F)F)c(C4CC4)n3)c(C)n2)o1 [Compound A-74, 4-cyclopropyl-N-(3-methyl-1-(2-(5-methyl-1,3,4-oxadiazol-2-yl)propan-2-yl)-1H-pyrazol-4-yl)-5-(trifluoromethyl)pyrimidin-2-amine]",30 to 60 nM
13,"Cc1nn(C(F)(F)c2ncn(C)n2)cc1Nc1ncc(C(F)(F)F)c(C2CC2)n1 [Compound A-75, 4-cyclopropyl-N-[1-[difluoro(1-methyl-1H-1,2,4-triazol-3-yl)methyl]-3-methyl-pyrazol-4-yl]-5-(trifluoromethyl)pyrimidin-2-amine]",< 30 nM
